Legend:
human PDE9A2 = target: T1, human PDE9A2 (Homo sapiens, UniProt O76083); experiment: PDE9A2 enzymatic activity assay (scintillation proximity assay); assay type: biochemical; details: for IC50: specific IC50 value is within the given range
T1 construct: made in house; host or cells: Sf9 insect cells (infected; crude lysate used as enzyme source)
Protocol: The PDE9A2 enzymatic activity assay was run as scintillation proximity assay (SPA), in general according to the protocol of the manufacturer (Amersham Biosciences, product number: TRKQ 7100).
As enzyme source, lysate (PBS with 1% Triton X-100 supplemented with protease inhibitors, cell debris removed by centrifugation at 13.000 rpm for 30 min) of SF 9 cell expressing the human PDE9A2 was used. The total protein amount included in the assay varied upon infection and production efficacy of the SF9 cells and lay in the range of 0.1-100 ng.
In general, the assay conditions were as follows: • total assay volume: 40 microliter • protein amount: 0.1-50 ng • substrate concentration (cGMP): 20 nanomolar; ˜1 mCi/1 • incubation time: 60 min at room temperature • final DMSO concentration: 0.2-1
The assays were run in 384-well format. The test reagents as well as the enzyme and the substrate were diluted in assay buffer. The assay buffer contained 50 mM Tris, 8.3 mM MgCl2, 1.7 mM EGTA, 0.1% BSA, 0.05% Tween 20; the pH of assay buffer was adjusted to 7.5. The reaction was stopped by applying a PDE9 specific inhibitor (e.g. compounds according to WO04099210 or WO04099211) in excess.
The activity of the positive control (minus the negative control=background) is set to 100% and activity in the presence of test compound is expressed relative to these 100%. Within this setting, an inhibition above 100% might be possible due to the nature of the variation of the positive control within the assay. In the following inhibition of PDE 9A2 is presented for a concentration at 10 μM, if not indicated otherwise.
IC50 can be calculated with GraphPadPrism or other suited software setting the positive control as 100 and the negative control as 0. For calculation of IC50 dilutions of the test compounds (substrates) are to be selected and tested following the aforementioned protocol.

Murine PDE9A = target: T2, Murine PDE9A (Mus musculus, UniProt O70628); details: concentrations below 200 micromolar; cited from earlier work
T2 sequence (O70628 1-534): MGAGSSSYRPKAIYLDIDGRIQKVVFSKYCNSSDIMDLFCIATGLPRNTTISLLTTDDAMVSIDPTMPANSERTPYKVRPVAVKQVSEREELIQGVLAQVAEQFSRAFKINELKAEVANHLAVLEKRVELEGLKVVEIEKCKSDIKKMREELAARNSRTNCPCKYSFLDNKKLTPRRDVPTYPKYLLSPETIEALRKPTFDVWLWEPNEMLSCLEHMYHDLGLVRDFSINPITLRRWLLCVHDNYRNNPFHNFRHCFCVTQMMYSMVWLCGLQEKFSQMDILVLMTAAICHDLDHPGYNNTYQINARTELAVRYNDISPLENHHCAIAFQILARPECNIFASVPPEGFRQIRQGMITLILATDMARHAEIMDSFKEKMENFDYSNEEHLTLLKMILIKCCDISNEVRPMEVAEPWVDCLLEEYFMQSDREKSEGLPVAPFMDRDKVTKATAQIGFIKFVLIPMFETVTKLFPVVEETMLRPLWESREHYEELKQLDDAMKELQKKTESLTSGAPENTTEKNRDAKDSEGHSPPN

human PDE9A = human PDE9A (Homo sapiens, UniProt O76083); details: concentrations of up to 100 micromolar (μM); cited from earlier work
human PDE9A, sequence (O76083 whole entry): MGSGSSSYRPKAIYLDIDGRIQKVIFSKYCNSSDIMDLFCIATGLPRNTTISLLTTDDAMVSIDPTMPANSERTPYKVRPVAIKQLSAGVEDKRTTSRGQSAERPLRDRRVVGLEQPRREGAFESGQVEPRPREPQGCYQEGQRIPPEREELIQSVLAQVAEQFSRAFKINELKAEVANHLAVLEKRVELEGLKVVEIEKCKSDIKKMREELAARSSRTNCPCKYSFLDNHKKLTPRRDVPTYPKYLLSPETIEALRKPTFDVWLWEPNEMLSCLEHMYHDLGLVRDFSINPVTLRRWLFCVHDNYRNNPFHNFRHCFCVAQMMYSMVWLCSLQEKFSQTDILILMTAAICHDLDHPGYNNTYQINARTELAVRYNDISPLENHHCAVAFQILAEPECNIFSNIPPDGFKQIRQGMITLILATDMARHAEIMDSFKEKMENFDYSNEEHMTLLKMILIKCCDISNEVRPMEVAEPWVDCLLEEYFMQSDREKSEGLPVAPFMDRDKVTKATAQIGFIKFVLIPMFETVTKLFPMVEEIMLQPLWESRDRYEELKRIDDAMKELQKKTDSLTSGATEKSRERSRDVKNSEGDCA

[1] = read-out: % Inhibition of PDE 9A2

T1 sequence (O76083 1-533 isoform O76083-2): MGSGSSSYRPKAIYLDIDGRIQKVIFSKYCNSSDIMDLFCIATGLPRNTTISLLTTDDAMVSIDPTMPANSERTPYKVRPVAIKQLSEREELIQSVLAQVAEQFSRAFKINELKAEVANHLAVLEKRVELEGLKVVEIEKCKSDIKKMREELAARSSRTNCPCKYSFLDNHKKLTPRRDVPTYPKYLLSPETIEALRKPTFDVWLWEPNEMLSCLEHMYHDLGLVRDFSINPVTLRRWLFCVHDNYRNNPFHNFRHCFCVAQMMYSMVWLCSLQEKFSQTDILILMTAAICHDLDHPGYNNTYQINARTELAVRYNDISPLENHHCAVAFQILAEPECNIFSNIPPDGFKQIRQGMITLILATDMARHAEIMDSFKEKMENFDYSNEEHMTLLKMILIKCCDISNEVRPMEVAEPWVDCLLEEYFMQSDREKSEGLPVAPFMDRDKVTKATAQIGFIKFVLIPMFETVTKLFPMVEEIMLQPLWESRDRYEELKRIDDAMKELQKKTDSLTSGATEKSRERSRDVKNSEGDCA

Compound	inhibition at 10 µM (human PDE9A2; [1])	IC50 (human PDE9A2)	also measured
O=c1[nH]c(Cc2ccccc2-c2ccnnc2)nc2c1cnn2C1CCC(F)(F)CC1 [Example 98]	100%	1 to 100 nM	
Cc1nc(-c2ccccc2Cc2nc3c(cnn3C3CCC(F)(F)CC3)c(=O)[nH]2)n[nH]1 [Example 99]	100%	1 to 100 nM	
COc1cccnc1Cc1nc2c(cnn2C2CCC(F)(F)CC2)c(=O)[nH]1 [Example 100]	95%	101 to 1500 nM	
O=c1[nH]c(Cc2ccccc2C2CC2)nc2c1cnn2C1CCC(F)(F)CC1 [Example 103]		1 to 100 nM	inhibition at 3.3 µM (human PDE9A2; at 3.3 μM, read-out: % Inhibition of PDE 9A2): 96%
O=c1[nH]c(Cc2ccccc2-n2cccc2)nc2c1cnn2C1CCC(F)(F)CC1 [Example 104]	97%	1 to 100 nM	
O=c1[nH]c(Cc2ncccc2C2CC2)nc2c1cnn2C1CCC(F)(F)CC1 [Example 105]	97%	101 to 1500 nM	
Cc1ccn(-c2ccccc2Cc2nc3c(cnn3C3CCC(F)(F)CC3)c(=O)[nH]2)n1 [Example 106]	83%	1 to 100 nM	
Nc1ccccc1Cc1nc2c(cnn2C2CCC(F)(F)CC2)c(=O)[nH]1 [Example 107]	100%	1 to 100 nM	
O=c1[nH]c(Cc2ccccc2-n2cnnc2)nc2c1cnn2C1CCC(F)(F)CC1 [Example 108]	99%	1 to 100 nM	
O=c1[nH]c(Cc2ccccn2)nc2c1cnn2C1CCC(F)CC1 (centres unmarked) [Example 109]	93%		
Cc1cccnc1Cc1nc2c(cnn2C2CCC(F)CC2)c(=O)[nH]1 (centres unmarked) [Example 110]	95%		
O=c1[nH]c(CC2CCC2)nc2c1cnn2C1CCC(F)CC1 (centres unmarked) [Example 111]	74%	1 to 100 nM	
CC(C)Cc1nc2c(cnn2C2CCC(F)CC2)c(=O)[nH]1 (centres unmarked) [Example 112]	97%	1 to 100 nM	
O=c1[nH]c(CC2CCCC2)nc2c1cnn2C1CCC(F)CC1 (centres unmarked) [Example 113]	98%	1 to 100 nM	
CC(C)Cn1c(=O)n(C)c(=O)c2[nH]cnc21 [IBMX]			inhibition of murine PDE9A (Murine PDE9A): not inhibited; inhibition on the isolated enzyme (human PDE9A): no inhibition
CC(=O)Nc1ccc(-c2c[nH]c(=O)cn2)cc1 [SKF94120]			inhibition on the isolated enzyme (human PDE9A): no inhibition
OCCN(CCO)c1nc(N2CCCCC2)c2nc(N(CCO)CCO)nc(N3CCCCC3)c2n1 [dipyridamole]			inhibition on the isolated enzyme (human PDE9A): no inhibition
COc1ccc(C2CNC(=O)C2)cc1OC1CCCC1 (centres unmarked) [rolipram]			inhibition on the isolated enzyme (human PDE9A): no inhibition
CCOC(=O)C1=C[C@]2(CC)CCCN3CCc4c(n1c1ccccc41)[C@@H]32 [vinpocetine]			inhibition on the isolated enzyme (human PDE9A): no inhibition

— US9079905B2, “Compounds for the treatment of CNS disorders” (Boehringer Ingelheim International GmbH, priority 2008, dated 2015)
